# Measurements reported in US11040028B2, “Penicinotam derivative, preparation method and use thereof” (OCEAN UNIVERSITY OF CHINA, priority 2017, dated 2021).
# Experiments:
# Format in all cases: cell-based
# [1] = tested on: human dermal fibroblasts CCC-ESF-1; experiment: Anti-fibrosis activity test: inhibition of proliferation of human dermal fibroblasts CCC-ESF-1 (CCK-8); details: Fibroblast
# Outline: (§1)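 48 h compound treatment of fibroblast-type cells seeded at 2×10^4 cells/mL, 37° C, 5% CO2; viability by CCK-8 (2 h, A450). Inhibition rate calculated against blank control, IC50 by curve fitting; pirfenidone served as reference.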
# [2] = tested on: human fibrosarcoma cells HT-1080; experiment: Anti-fibrosis activity test: inhibition of proliferation of human fibrosarcoma cells HT-1080 (CCK-8); details: Homo sapiens, HT-1080, 48 h
# Outline: as §1
# [3] = tested on: cardiac fibroblast RAT-iCell-C002; experiment: Anti-fibrosis activity test: inhibition of proliferation of cardiac fibroblast RAT-iCell-C002 (CCK-8); details: Cardiac fibroblast, 48 h
# Outline: as §1
# BHK-21 cells = experiment: Anti-fibrosis activity test: inhibition of BHK-21 cell proliferation (CCK-8); details: Mesocricetus auratus, BHK-21, 48 h
# Outline: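 Cells plated 2×10^4 cells/mL; 24 h attach; compound dilutions, triplicate, 48 h, 37° C/5% CO2; CCK-8 2 h; A450; IR = (1−Ai/Ao)×100%; IC50 by curve fit.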
# [4] = tested on: human lung fibroblasts HFL1; experiment: Anti-fibrosis activity test: inhibition of proliferation of human lung fibroblasts HFL1 (CCK-8); details: Homo sapiens, HFL1, 48 h
# Outline: as §1
# [5] = tested on: mouse macrophages (RAW264.7); experiment: Lipopolysaccharide-induced NO secretion in macrophages (Griess); details: Mus musculus, RAW264.7, 24 h, RAW264.7, LPS 1 μg/ml, a/b isomers given as first/second symbol, read-out: IC50 (μM), inhibition of lipopolysaccharide-induced NO secretion in macrophages
# Method: The effects of the compounds of the present application on the lipopolysaccharide-induced NO secretion in macrophage was tested Principle: Anti-inflammatory drug activity screening is to detect the inhibitory effect of compounds on NO production in the mouse macrophages (RAW264.7). When immune cells are stimulated by microbial endotoxin, inflammatory mediators, etc., a large amount of induced NO synthase (iNOS) is produced, and thus NO is generated for immune response. Accordingly, the inhibition of NO production can serve as a direct indicator of the anti-inflammatory activity of the compound. The activity of the compound to inhibit NO production at the cellular level is directly evaluated in the abovementioned test model, thereby reflecting the anti-inflammatory activity of the compound. In this experiment, the content of NO in the medium was detected by Gris kit (Molecular probes, G-7921). Macrophages (Raw264.7) were cultured in DMEM medium containing 10% fetal bovine serum, with the cell concentration adjusted. The cells were seeded in 24-well cell culture plates, cultured in an incubator, and the test samples in different concentrations were added every other day. The blank medium was used as a blank control, and commercially available indomethacin and resveratrol were employed as positive controls. After the addition of lipopolysaccharide (LPS, 1 μg/ml), incubation was performed for 24 hours. Then the supernatant culture solution was taken, to […] reagent was added, and the absorbance value was measured by a microplate reader at 548 nm. Inhibition rate=([…])×100%.
# [6] = tested on: human embryonic lung fibroblast IMR-90; experiment: Anti-fibrosis activity test: inhibition of proliferation of human embryonic lung fibroblast IMR-90 (CCK-8)
# Outline: as §1
# [7] = tested on: human hepatic stellate cells LX-2; experiment: Anti-fibrosis activity test: inhibition of proliferation of human hepatic stellate cells LX-2 (CCK-8); details: Homo sapiens, 48 h
# Outline: as §1
# [8] = human dermal fibroblasts CCC-ESF-1, CCK-8, 48 hours
# [9] = human fibrosarcoma cells HT-1080, CCK-8, 48 hours
# [10] = cardiac fibroblast RAT-iCell-C002, CCK-8, 48 hours
# [11] = CCK-8, 48 hours after administration
# [12] = human lung fibroblasts HFL1, CCK-8, 48 hours
# [13] = human embryonic lung fibroblast IMR-90, CCK-8, 48 hours
# [14] = human hepatic stellate cells LX-2, CCK-8, 48 hours
# [15] = Homo sapiens, CCC-ESF-1 cells, 48 h, CCK-8
# [16] = Homo sapiens, IMR-90 cells, 48 h, CCK-8
"IC50 [2, 9]",IC50 [5],"IC50 ([2]; HT-1080 cells, 48 h, CCK-8)",Structure (SMILES),"IC50 [1, 8]","IC50 [3, 10]",IC50 (BHK-21 cells; [11]),"IC50 [4, 12]","IC50 [6, 13]","IC50 [7, 14]","IC50 [1, 15]","IC50 ([3]; RAT-iCell-C002 cells, CCK-8)","IC50 (BHK-21 cells; 48 h, CCK-8)","IC50 ([4]; HFL1 cells, 48 h, CCK-8)","IC50 [6, 16]","IC50 ([7]; LX-2, 48 h, LX-2 cells, CCK-8)"
0.05 to 5 mM,0.1 to 1 µM,–,"O=C1c2c([nH]c3cc(Cl)ccc3c2=O)-c2cccn21 [Compound 500a, 6-Chloro-9H-pyrrolizino[1,2-b]quinoline-9,10(4H)-dione]",0.05 to 5 mM,0.05 to 5 mM,0.05 to 5 mM,0.05 to 5 mM,0.05 to 5 mM,< 0.05 mM,–,–,–,–,–,–
0.05 to 5 mM,10 to 50 µM,–,"O=C1c2c(n(Cc3ccc(F)cc3)c3c(F)c(N4CCNCC4)ccc3c2=O)-c2cccn21 [Compound 485a, 5-Fluoro-4-(4-fluorobenzyl)-6-(piperazin-1-yl)-9H-pyrrolizino[1,2-b]quinoline-9,10(4H)-dione]",0.05 to 5 mM,0.05 to 5 mM,0.05 to 5 mM,0.05 to 5 mM,0.05 to 5 mM,0.05 to 5 mM,–,–,–,–,–,–
–,1 to 10 µM,0.05 to 5 mM,"O=C1c2nc3ccccc3c(OCCN3CCCCC3)c2-c2cccn21 [Compound 784b, 11-(2-(piperidin-1-yl)ethoxy)-5H-pyrrolizino[2,1-b]quinolin-5-one]",–,–,–,–,–,–,0.05 to 5 mM,0.05 to 5 mM,0.05 to 5 mM,0.05 to 5 mM,0.05 to 5 mM,0.05 to 5 mM
–,10 to 50 µM,0.05 to 5 mM,"Cc1cccc2c(=O)c3c([nH]c12)C(=O)n1cccc1-3 [Compound 779a, 7-Methyl-5H-pyrrolizino[2,1-b]quinoline-5,11(6H)-dione]",–,–,–,–,–,–,0.05 to 5 mM,0.05 to 5 mM,0.05 to 5 mM,0.05 to 5 mM,0.05 to 5 mM,0.05 to 5 mM
0.05 to 5 mM,1 to 10 µM,–,"N#Cc1ccc2c(c1)c(=O)c1c(n2-c2ccc(Cl)cc2)-c2cccn2C1=O [Compound 210a, 4-(4-Chlorophenyl)-9,10-dioxo-4,10-dihydro-9H-pyrrolizino[1,2-b]quinoline-7-carbonitrile]",0.05 to 5 mM,0.05 to 5 mM,0.05 to 5 mM,0.05 to 5 mM,0.05 to 5 mM,0.05 to 5 mM,–,–,–,–,–,–
–,1 to 10 µM,0.05 to 5 mM,"Cc1cc(C)c2nc3c(c(O)c2c1)-c1cccn1C3=O [Compound 780b, 11-hydroxy-7,9-dimethyl-5H-pyrrolizino[2,1-b]quinolin-5-one]",–,–,–,–,–,–,0.05 to 5 mM,0.05 to 5 mM,0.05 to 5 mM,0.05 to 5 mM,0.05 to 5 mM,0.05 to 5 mM
0.05 to 5 mM,1 to 10 µM,–,"O=C1c2c(nc3ccc(C(F)(F)F)cc3c2Oc2ccc(F)cc2)-c2cccn21 [Compound 259b, 9-(4-fluorophenoxy)-7-(trifluoromethyl)-10H-pyrrolizino[1,2-b]quinolin-10-one]",5 to 20 mM,0.05 to 5 mM,0.05 to 5 mM,0.05 to 5 mM,< 0.05 mM,0.05 to 5 mM,–,–,–,–,–,–
< 0.05 mM,1 to 10 µM,–,"O=C1c2c(n(C(=O)c3ccco3)c3cc(N4CCNCC4)c(F)cc3c2=O)-c2cccn21 [Compound 343a, 7-Fluoro-4-(furan-2-carbonyl)-6-(piperazin-1-yl)-9H-pyrrolizino[1,2-b]quinoline-9,10(4H)-dione]",0.05 to 5 mM,0.05 to 5 mM,0.05 to 5 mM,0.05 to 5 mM,0.05 to 5 mM,0.05 to 5 mM,–,–,–,–,–,–
0.05 to 5 mM,1 to 10 µM,–,"CCOc1c2c(nc3ccc(F)cc13)-c1cccn1C2=O [Compound 104b, 9-ethoxy-7-fluoro-10H-pyrrolizino[1,2-b]quinolin-10-one]",0.05 to 5 mM,0.05 to 5 mM,0.05 to 5 mM,0.05 to 5 mM,0.05 to 5 mM,0.05 to 5 mM,–,–,–,–,–,–
0.05 to 5 mM,0.1 to 1 µM,–,"O=C1c2c(n(-c3ccc(Cl)cc3)c3ccc(C(F)(F)F)cc3c2=O)-c2cccn21 [Compound 276a, 4-(4-Chlorophenyl)-7-(trifluoromethyl)-9H-pyrrolizino[1,2-b]quinoline-9,10(4H)-dione]",0.05 to 5 mM,5 to 20 mM,< 0.05 mM,0.05 to 5 mM,0.05 to 5 mM,0.05 to 5 mM,–,–,–,–,–,–
0.05 to 5 mM,1 to 10 µM,–,"O=C1c2c(nc3c(F)c(N4CCNCC4)ccc3c2OCc2ccc(Cl)cc2)-c2cccn21 [Compound 484b, 9-((4-chlorobenzyl)oxy)-5-fluoro-6-(piperazin-1-yl)-10H-pyrrolizino[1,2-b]quinolin-10-one]",0.05 to 5 mM,0.05 to 5 mM,0.05 to 5 mM,0.05 to 5 mM,0.05 to 5 mM,0.05 to 5 mM,–,–,–,–,–,–
–,1 to 10 µM,0.05 to 5 mM,"Cc1ccc(C)c2c(O)c3c(nc12)C(=O)n1cccc1-3 [Compound 783b, 11-hydroxy-7,10-dimethyl-5H-pyrrolizino[2,1-b]quinolin-5-one]",–,–,–,–,–,–,0.05 to 5 mM,0.05 to 5 mM,0.05 to 5 mM,0.05 to 5 mM,0.05 to 5 mM,0.05 to 5 mM
0.05 to 5 mM,1 to 10 µM,–,"O=C1c2c(nc3cccc(Cl)c3c2OCc2ccc(F)cc2)-c2cccn21 [Compound 474b, 8-chloro-9-((4-fluorobenzyl)oxy)-10H-pyrrolizino[1,2-b]quinolin-10-one]",0.05 to 5 mM,5 to 20 mM,0.05 to 5 mM,0.05 to 5 mM,0.05 to 5 mM,0.05 to 5 mM,–,–,–,–,–,–
0.05 to 5 mM,1 to 10 µM,–,"O=C1c2c(nc3cc(F)ccc3c2OCc2cccc(Cl)c2)-c2cccn21 [Compound 497b, 9-((3-chlorobenzyl)oxy)-6-fluoro-10H-pyrrolizino[1,2-b]quinolin-10-one]",0.05 to 5 mM,0.05 to 5 mM,0.05 to 5 mM,0.05 to 5 mM,0.05 to 5 mM,0.05 to 5 mM,–,–,–,–,–,–
5 to 20 mM,1 to 10 µM,–,"O=C1c2c(n(Cc3ccc(Cl)cc3)c3cc(Cl)ccc3c2=O)-c2cccn21 [Compound 508a, 6-Chloro-4-(4-chlorobenzyl)-9H-pyrrolizino[1,2-b]quinoline-9,10(4H)-dione]",0.05 to 5 mM,0.05 to 5 mM,0.05 to 5 mM,0.05 to 5 mM,0.05 to 5 mM,0.05 to 5 mM,–,–,–,–,–,–

Structure (SMILES),"IC50 [2, 9]",IC50 [5],"IC50 ([2]; HT-1080 cells, 48 h, CCK-8)","IC50 [1, 8]","IC50 [3, 10]",IC50 (BHK-21 cells; [11]),"IC50 [4, 12]","IC50 [6, 13]","IC50 [7, 14]","IC50 [1, 15]","IC50 ([3]; RAT-iCell-C002 cells, CCK-8)","IC50 (BHK-21 cells; 48 h, CCK-8)","IC50 ([4]; HFL1 cells, 48 h, CCK-8)","IC50 [6, 16]","IC50 ([7]; LX-2, 48 h, LX-2 cells, CCK-8)"
"O=C1c2c([nH]c3cc(N4CCNCC4)c(Cl)cc3c2=O)-c2cccn21 [Compound 373a, 7-Chloro-6-(piperazin-1-yl)-9H-pyrrolizino[1,2-b]quinoline-9,10(4H)-dione]",0.05 to 5 mM,0.1 to 1 µM,–,0.05 to 5 mM,0.05 to 5 mM,0.05 to 5 mM,0.05 to 5 mM,0.05 to 5 mM,0.05 to 5 mM,–,–,–,–,–,–
"Cn1c2c(c(=O)c3cc(F)c(N4CCNCC4)cc31)C(=O)n1cccc1-2 [Compound 361a, 7-Fluoro-4-methyl-6-(piperazin-1-yl)-9H-pyrrolizino[1,2-b]quinoline-9,10(4H)-dione]",< 0.05 mM,1 to 10 µM,–,0.05 to 5 mM,0.05 to 5 mM,0.05 to 5 mM,0.05 to 5 mM,0.05 to 5 mM,0.05 to 5 mM,–,–,–,–,–,–
"O=C1c2nc3ccccc3c(OCCCCN3CCOCC3)c2-c2cccn21 [Compound 789b, 11-(4-morpholinobutoxy)-5H-pyrrolizino[2,1-b]quinolin-5-one]",–,1 to 10 µM,0.05 to 5 mM,–,–,–,–,–,–,0.05 to 5 mM,0.05 to 5 mM,0.05 to 5 mM,0.05 to 5 mM,0.05 to 5 mM,0.05 to 5 mM
